From paper PMC8308870 (2021) come the findings set out here.

The term ΔTm denotes the change in melting temperature against a reference sample.

The subject of assay [1] is k-RAS (CD) (DNA, G4) AGGGCGGTGTGGGAAGAGGGA
The assay is described as follows: CD titration. Conditions: 50 mM K+, 50 mM LiCl; 20 mM lithium cacodylate, 20 °C; 10 µM DNA, 0–25 eq; ellipticity decrease, 295 nm band.

The subject of assay [2] is h-Telo (CD) (DNA, G4) GGGTTAGGGTTAGGGTTAGGG
The assay is described as follows: CD titration. The conditions noted are these: 10 mM K+, 90 mM LiCl, 20 mM lithium cacodylate, 20 °C, 10 µM DNA, 0–25 eq.

The subject of assay [3] is k-RAS (FRET) (DNA, G4) AGGGCGGTGTGGGAAGAGGGA
The assay is described as follows: FRET melting. The conditions noted are these: 60 mM K+, pH 7.4, 0.2 µM DNA.

The test system of assay [4] is T-Loop (t-Loop) (DNA, hairpin) TATAGCTATATTTTTTTATAGCTATA
The assay can be described thus: FRET melting. The conditions noted are these: 60 mM K+, potassium cacodylate, pH 7.4, 0.2 µM DNA.

Assay [5] concerns Pu27mut (DNA, G4) TGGGGAGGGTGGAAAGGGTGGGGAAGG
The assay is described as follows: CD titration. Conditions: 10 mM K+, 2 mM Mg2+, 10 mM (NH4)2SO4; ThermoPol buffer (20 mM Tris-HCl, 0.1% Triton X-100), pH 8.8; parallel G4 induced.

Assay [6] deals with k-RAS (CD) (DNA, G4) AGGGCGGTGTGGGAAGAGGGA
The assay can be described thus: CD melting (265 nm). The conditions noted are these: 50 mM K+, 50 mM LiCl; 20 mM lithium cacodylate, pH 7.2; 10 µM DNA; compound 5 eq.

Assay [7] concerns c-MYC (Pu27) (DNA, G4) TGGGGAGGGTGGGGAGGGTGGGGAAGG
The assay is described as follows: CD melting (265 nm). Conditions: 100 mM LiCl, no K+ listed; 20 mM lithium cacodylate, pH 7.2; 10 µM DNA; compound 5 eq.

For assay [8], the system named is h-Telo (FRET) (DNA, G4) GGGTTAGGGTTAGGGTTAGGG
The assay is described as follows: FRET melting. The conditions noted are these: 60 mM K+, pH 7.4, 0.2 µM DNA.

Assay [9] concerns h-Telo (CD) (DNA, G4) GGGTTAGGGTTAGGGTTAGGG
The assay can be described thus: CD melting (290 nm). The conditions noted are these: 10 mM K+, 90 mM LiCl; 20 mM lithium cacodylate, pH 7.2; 10 µM DNA; compound 5 eq.

[10] abbreviates: cacodylate, compound 5 µM (25 eq).

For `C[n+]1ccc(NC(=O)c2cccc(C(=O)Nc3cc[n+](C)c4ccccc34)n2)c2ccccc21`, the binding result in [1] and in assay [2] (topology maintained) was “yes” each time.
Regarding `O=C(Nc1cncc2ccccc12)c1cccc(C(=O)Nc2cncc3ccccc23)n1`, the ΔTm in assay [3] (setting [10]) was < 0.5 °C.
Regarding `C[n+]1cc(NC(=O)c2cccc(C(=O)Nc3cc4ccccc4[n+](C)c3)n2)cc2ccccc21`, the thermal shift (ΔTm) is 35.6 ± 0.3 °C in assay [3] (potassium cacodylate, compound 5 eq (1 µM)); 6.5 ± 0.1 °C in [4] (compound 5 eq (1 µM)); > 40 °C in assay [6]; > 40 °C in assay [7]. The binding entry in assay [2] (hybrid to parallel switch) and in assay [5] was “yes” in each case.
Regarding `O=C(Nc1ccc2ccccc2n1)c1cccc(C(=O)Nc2ccc3ccccc3n2)n1`, the shift in melting temperature (ΔTm) in [8] (setting [10]) was < 0.5 °C.
With `C[n+]1ccc2c(NC(=O)c3cccc(C(=O)Nc4cccc5c[n+](C)ccc45)n3)cccc2c1`, the ΔTm in [4] (compound 25 eq (5 µM)) stood at 1.8 ± 0.2 °C; in assay [6] it was 12.2 ± 0.2 °C; in assay [9], 4.4 ± 0.2 °C; in assay [7] it was 5.3 ± 0.1 °C. The binding entry in assay [1] and in assay [2] (topology maintained) was “yes” each time.
Regarding `C[n+]1cc(NC(=O)c2cccc(C(=O)Nc3c[n+](C)cc4ccccc34)n2)c2ccccc2c1`, the ΔTm was 22.7 ± 0.2 °C in assay [8] (potassium cacodylate, compound 25 eq (5 µM)) and 14.9 ± 0.2 °C in assay [9]. The binding entry in assay [1] and in assay [2] (hybrid to antiparallel switch) was “yes” in each case.
